Measurements published in PMC4222822, “Discovery and Characterization of a Potent and Selective Inhibitor of Aedes aegypti Inward Rectifier Potassium Channels” (PLoS ONE, 2014).

Tests used:
AeKir1 = AeKir1 (Aedes aegypti, UniProt L0EQS9); test: Whole-cell patch clamp electrophysiology of T-REx-HEK293-AeKir1 cells; assay type: cell-based
Procedure: T-REx-HEK293-AeKir1 cells were voltage clamped in the whole-cell configuration of the patch clamp technique after overnight induction with tetracycline (1 µg/ml) essentially as described earlier. Briefly, patch electrodes were pulled from silanized 1.5 mm outer diameter borosilicate microhematocrit tubes using a Narishige PC-10 two-stage puller. Electrode resistance ranged from 3.5 to 5.5 MΩ when filled with the following intracellular solution (in mM): 135 KCl, 2 MgCl2, 1 EGTA, 10 HEPES free acid, 2 Na2ATP (Roche, Indianapolis, IN), pH 7.3, 275 mOsm. The standard bath solution contained (in mM): 135 NaCl, 5 KCl, 2 CaCl2, 1 MgCl2, 5 glucose, 10 HEPES free acid, pH 7.4, 290 mOsm. Whole-cell currents were recorded under voltage-clamp conditions using an Axopatch 200B amplifier (Molecular Devices, Sunnyvale, CA). Electrical connections to the amplifier were made using Ag/AgCl wires and 3 M KCl/agar bridges. Electrophysiological data were collected at 5 kHz and filtered at 1 kHz. Data acquisition and analysis were performed using pClamp 9.2 software (Axon Instruments). All recordings were made at room temperature (20–23°C).

Kir7.1(M125R) = molecular target: T1, Kir7.1(M125R) (Homo sapiens, UniProt O60928, M125R); test: Tl+ flux selectivity assay, Kir7.1(M125R); assay type: cell-based; conditions: n = 2 independent experiments in triplicate, read-out: Inhibition of Tl+ flux (IC50)
T1 construct: expressed in transfected cells
T1 sequence (O60928 1-360 M125R): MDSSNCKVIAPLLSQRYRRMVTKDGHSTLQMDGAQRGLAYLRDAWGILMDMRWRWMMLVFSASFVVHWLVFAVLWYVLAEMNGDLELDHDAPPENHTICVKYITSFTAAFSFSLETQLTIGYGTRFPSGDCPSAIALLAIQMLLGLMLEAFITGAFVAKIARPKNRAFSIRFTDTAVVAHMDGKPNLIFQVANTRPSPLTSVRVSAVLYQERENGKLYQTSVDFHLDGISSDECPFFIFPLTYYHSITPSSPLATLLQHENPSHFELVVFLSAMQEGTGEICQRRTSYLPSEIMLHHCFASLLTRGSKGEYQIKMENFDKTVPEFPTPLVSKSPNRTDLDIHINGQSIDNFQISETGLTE

[1] = tested on: adult female mosquitoes (A. aegypti); test: Mosquito excretion experiments (excretory capacity); assay type: in vivo, Aedes aegypti; conditions: 1 h after injection, mean ±SEM
Procedure: The Aedes aegypti mosquito colony used in the present study is identical to that described previously. As before, only adult female mosquitoes 3–10 days post emergence were utilized for experiments.
The excretory capacity of mosquitoes was measured as described. In brief, after anesthetizing mosquitoes on ice, their hemolymph was injected as described above with 900 nL of a K^+-PBS vehicle containing 1.15% DMSO, 0.077% β-cyclodextrin, and 0.008% Solutol, or the vehicle containing VU625 (0.77 mM) to deliver a dose of 690 pmol of VU625 per mosquito. In experiments where probenecid was used, the vehicle was supplemented with water- soluble probenecid […] to deliver a dose of 3.4 nmol of probenecid per mosquito. After injection, the mosquitoes were placed immediately in a graduated, packed-cell volume tube (MidSci, St. Louis, MO; 5 mosquitoes per tube) and held at 28°C. The volume of urine excreted at 60 min post injection was measured as described previously, and all mosquitoes were confirmed to be alive at the end of 60 min period. For each treatment, 6–18 independent trials of 5 mosquitoes per treatment were performed.
Prism (GraphPad Software) was used to generate a dose-response curve for the toxicity of VU625; the doses (x-axis) were first log transformed and then the mortality data was normalized using Prism, where the smallest value and largest values in a data set equal ‘0%’ and ‘100%’, respectively. The data were then fitted using a ‘biphasic’ algorithm (<100 constraint) to calculate potencies (ED25 and ED75 values). To compare 1) the toxic effects among the vehicle, probenecid, VU625, and VU625 + probenecid treatments, and 2) the excretory capacity among the vehicle, probenecid, VU625, and VU625 + probenecid treatments, one-way ANOVAs were performed with Newman-Keuls posttests.

AeKir1, sequence (L0EQS9 entry or part of it): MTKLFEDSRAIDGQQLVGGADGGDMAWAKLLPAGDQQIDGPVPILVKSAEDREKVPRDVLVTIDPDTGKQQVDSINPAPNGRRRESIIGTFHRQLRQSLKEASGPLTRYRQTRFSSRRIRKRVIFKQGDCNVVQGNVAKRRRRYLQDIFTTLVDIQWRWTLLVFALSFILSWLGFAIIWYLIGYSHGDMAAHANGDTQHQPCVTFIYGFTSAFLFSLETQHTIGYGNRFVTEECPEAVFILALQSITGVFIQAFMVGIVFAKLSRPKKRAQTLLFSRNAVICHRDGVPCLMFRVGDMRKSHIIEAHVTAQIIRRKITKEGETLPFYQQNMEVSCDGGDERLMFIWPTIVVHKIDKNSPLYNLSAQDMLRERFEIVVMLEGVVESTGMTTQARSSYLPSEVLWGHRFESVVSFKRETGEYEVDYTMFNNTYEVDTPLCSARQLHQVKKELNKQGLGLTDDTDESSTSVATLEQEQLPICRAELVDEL

With `CCC(=O)N1c2ccc(S(=O)(=O)Nc3cccc(OC)c3)cc2CC1C` (centres unmarked) [VU625, N-(3-methoxyphenyl)-2-methyl-1-propionylindoline-5-sulfonamide] the “Hill coefficient (nH)” value (AeKir1; 95% CI: 0.8–1.3) was 1.02, the IC50 (AeKir1; T-REx-HEK293 cells, 95% CI: 75.4–124.2 nM, n = 4–6) was 96.8 nM and the IC50 (Kir7.1(M125R)) was over 30000 nM. For the same molecule, the “excretory capacity (urine excreted)” value ([1]; VU625 690 pmol + probenecid 3.4 nmol per mosquito in 900 nL vehicle) was 236.7±24.53 nL/female and the “excretory capacity (urine excreted)” value ([1]; VU625 690 pmol per mosquito in 900 nL vehicle) was 583.3±29.52 nL/female.
